In US20230346820A1, “METHODS AND COMPOSITIONS FOR THE TREATMENT OF SARS-COV-2” (priority 2020, published 2023):
Like-named read-outs stand apart in the source and are kept apart here.

Experiments:
SARS-CoV-2 [1] = tested on: SARS-CoV-2
in vitro [2] = conditions: human
in vitro [3] = conditions: human; remark: listed apart in the source
SARS-CoV-2 [4] = test: microbe, parasite or virus in culture; conditions: Severe acute respiratory syndrome coronavirus 2, Calu-3, 48 h, read-out: Calu-3 CoV-2 EC50 [μM]
SARS-CoV-2 [5] = conditions: for HeLa-ACE2 SI CC50/CoV-2 EC50: Table 4
HeLa-ACE2 cells = test: cells; format: cell-based, human; conditions: Homo sapiens, HeLa-ACE2, read-out: HeLa-ACE-2 EC50 [μM] (Geomeans, n ≥ 2)
SARS-CoV-2 [6] = test: microbe, parasite or virus in culture; conditions: Severe acute respiratory syndrome coronavirus 2, HeLa-ACE2, 24 h, read-out: CoV-2 EC50 [μM] (Geomeans, n ≥ 2)
[7] = HeLa-ACE2 Uninfected Tox CC50 [μM], Table 4, aggregated data, Geomean, n = 3
[8] = CC50 [μM] (Geomeans, n ≥ 2 except where indicated: *n = 1)

Compound	CC50 (in vitro [3])	EC50 (SARS-CoV-2 [4])	Calu3 SI CC50/CoV-2 EC50 (SARS-CoV-2 [1]; Table 4)	CC50 (in vitro [2]; [7])	EC50 (HeLa-ACE2 cells)	HeLa-ACE2 CC50/CoV-2 EC50 (SARS-CoV-2 [5])	CC50 (in vitro [2]; [8])	EC50 (SARS-CoV-2 [6])	further results
CCc1ccc(C2=CC(C)(C)Sc3ccc(C#Cc4ccc(C(=O)O)cc4)cc32)cc1 [AGN-194310]	> 29.9 µM	0.597 µM	–	–	–	–	–	–	Calu3 SI CC50/CoV-2 EC50 (SARS-CoV-2 [1]): >50; CC50 (in vitro [2]; HeLa-ACE2 Uninfected Tox CC50 [μM]): > 39.8 µM
CC/C(=C(/c1ccc(/C=C/C(=O)O)cc1)c1ccc2[nH]ncc2c1)c1ccc(F)cc1Cl [ARN-810]	23.8 µM	1.1 µM	21.60	11 µM	–	–	–	–	–
C=Cc1cc(C(=O)Nc2ccc(C(=N)N)cc2)c(-c2ccc(C(=O)NCC3CC3)nc2C(=O)O)cc1OC [Avoralstat]	> 29.9 µM	–	>77	> 39.8 µM	–	–	–	–	activity in Calu-3 infection assay (SARS-CoV-2 [1]): active
COC(=O)[C@]12CCC(C)(C)C[C@H]1[C@H]1C(=O)C=C3[C@@]4(C)C=C(C#N)C(=O)C(C)(C)[C@@H]4CC[C@@]3(C)[C@]1(C)CC2 [Bardoxolone Methyl]	3.06 µM	–	38.47	3.1 µM	–	–	–	–	HeLa-ACE2 SI CC50/CoV-2 EC50 (SARS-CoV-2 [5]): 5.73
O=C(Nc1ccc(Cl)c(S(=O)(=O)N2CCNCC2)c1O)Nc1cccc(F)c1Cl [Elubrixitosylate]	> 29.6 µM	6.91 µM	>4.28	> 39.8 µM	–	–	–	–	HeLa-ACE2 SI CC50/CoV-2 EC50 (SARS-CoV-2 [5]): 4.35
N#Cc1cccc(C(C(=O)NCC(c2ccccc2)c2ccccc2)N(CCc2c[nH]cn2)C(=O)c2ccccc2C(=O)c2ccccc2)c1 (stereo not shown) [GENZ-29155]	> 29.9 µM	> 4.66 µM	>6.41	> 38.5 µM	–	–	–	–	HeLa-ACE2 SI CC50/CoV-2 EC50 (SARS-CoV-2 [5]): 4.01
CSc1ccc(CN2CCCC(Nc3ccc4[nH]ncc4c3)C2)cc1 (stereo not shown) [INS-117548]	> 29.9 µM	> 3.55 µM	>8.42	> 39.8 µM	–	–	–	–	HeLa-ACE2 SI CC50/CoV-2 EC50 (SARS-CoV-2 [5]): 4.15
O[C@@H]1CO[C@H]2[C@@H]1OC[C@H]2Oc1nc2nc(-c3ccc(-c4ccccc4)cc3)c(Cl)cc2[nH]1 [MK-8722]	> 29.9 µM	2.73 µM	>10	37.4 µM	–	–	–	–	–
O=c1nc(NO)ccn1[C@@H]1O[C@H](CO)[C@@H](O)[C@H]1O [N-hydroxycytidine]	–	–	–	–	> 9.6 µM	>18.13	> 37.5 µM	–	activity in HeLa-ACE2 infection assay (SARS-CoV-2 [5]): potent and selective; activity in Calu-3 infection assay (SARS-CoV-2 [1]): potent and selective
C=C(C)[C@@H]1CC[C@]2(C(=O)OCC(N)(CO)CO)CC[C@]3(C)[C@H](CC[C@@H]4[C@@]5(C)CC[C@H](OC(C)=O)C(C)(C)[C@@H]5CC[C@]43C)[C@@H]12 [NVX-207]	–	–	–	–	5.88 µM	4.37	8.19 µM	1.87 µM	–
CC[C@@H](C(=O)O)[C@@H]1O[C@@H]([C@@H](C)[C@H](O)[C@H](C)C(=O)[C@H](CC)[C@H]2O[C@]3(C=C[C@@H](O)[C@]4(CC[C@@](C)([C@H]5CC[C@](O)(CC)[C@H](C)O5)O4)O3)[C@H](C)C[C@@H]2C)[C@@H](C)C[C@@H]1C [Narasin]	–	–	–	–	5.99 µM	2.31	3.47 µM	1.5 µM	–
CN1CCN(C2Cc3cc(Cl)ccc3Sc3ccccc32)CC1 (stereo not shown) [OCTOCLOTHEPIN analog]	–	–	–	–	> 8.73 µM	>11.42	> 28.4 µM	2.49 µM	–
CC[C@@H]1/C=C/C=C/C[C@H](C)[C@@H](O)[C@](C)(O)C(=O)[C@H](C)[C@@H](O)[C@H](C)C(=O)[C@H](C)[C@@H](O)[C@H](C)/C=C/C(=O)O[C@H]2[C@@H](C)[C@@H](CC1)O[C@]1(O[C@H](C[C@H](C)O)[C@H](C)CC1=O)[C@@H]2C [Oligomycin B]	–	0.005 µM	4539.49	–	–	–	–	–	CC50 at 48 h (in vitro [3]): 24.5 µM
N=C(N)Nc1ccc(C(=O)Oc2ccc(S(N)(=O)=O)cc2)cc1 [Ono-3307]	> 29.9 µM	1.6 µM	>16	> 39.8 µM	–	–	–	–	–
CC(C)(C)c1ccc(CSc2cnn(C(C)(C)C)c(=O)c2Cl)cc1 [PYRIDABEN]	8.99 µM	0.205 µM	43.89	> 39.8 µM	–	–	–	–	–
CCOc1cc(C(C)(C)C)ccc1C1=N[C@@](C)(c2ccc(Cl)cc2)[C@@](C)(c2ccc(Cl)cc2)N1C(=O)N1CCN(CCCS(C)(=O)=O)CC1 [R-7112]	–	–	–	–	> 9.6 µM	>4.61	> 14.9 µM	3.23 µM	–
Cc1cccc(C)c1NC(=O)CN1CCN([C@@H]2CCN(C(=O)c3cc(C(F)(F)F)cc(C(F)(F)F)c3)[C@@H](Cc3ccccc3)C2)CC1 [R-116301]	–	–	–	–	> 9.59 µM	3.73	25.5 µM	6.83 µM	–
CN(C)CCC(Oc1ccc2c(c1)C(=O)CC(c1ccccc1)O2)c1ccccc1 (stereo not shown) [RFM-007-454-4]	–	–	–	–	> 9.59 µM	>6.13	> 23.5 µM	3.83 µM	–
CNCc1ccc(OC)c([C@]2(N3CCC[C@H]3c3ncco3)C(=O)N(S(=O)(=O)c3ccc(OC)cc3)c3ccc(Cl)cc32)c1 [RFM-011-200-5]	–	–	–	–	4.24 µM	>4.37	> 8.46 µM	1.93 µM	–
